SMILES strings stand for the structures. The source made the active and inactive calls. The calls are words filed in the database; no cut-off is given here.

15 molecules from ChEMBL document CHEMBL4665750, “Structure-Activity Relationship Study of Majusculamides A and B and Their Analogues on Osteogenic Activity” (J Nat Prod, 2020) can be followed below.

For data set [1], the system named is MC3T3-E1. The data set can be described thus: Osteogenic activity in mouse MC3T3-E1 cells assessed as mineralization at >= 30 uM after 6 days by Alizarin Red S staining-based method. The class given is functional, cell-based. The settings on record: dose microM >=30, time 6.0 day.
Data set [2] concerns MC3T3-E1. The data set can be described thus: Activation of alkaline phosphatase secretion in mouse MC3T3-E1 cells at >= 30 uM using 4-nitrophenyl phosphate as substrate after 6 days. In kind it is cell-based. The settings on record: dose microM >=30, time 6.0 day.
For data set [3], the system named is MC3T3-E1. The data set can be described thus: Activation of alkaline phosphatase secretion in mouse MC3T3-E1 cells at 30 uM using 4-nitrophenyl phosphate as substrate after 6 days. In kind it is cell-based. As to conditions: time 6.0 day.
The test system of data set [4] is MC3T3-E1. The data set can be described thus: Osteogenic activity in mouse MC3T3-E1 cells assessed as mineralization at 30 uM after 6 days by Alizarin Red S staining-based method. The class given is functional, cell-based. As to conditions: time 6.0 day.
The test system of data set [5] is MC3T3-E1. The data set can be described thus: Osteogenic activity in mouse MC3T3-E1 cells assessed as mineralization at 15 uM after 6 days by Alizarin Red S staining-based method. The class given is functional, cell-based. As to conditions: time 6.0 day.
Data set [6] deals with MC3T3-E1. The data set can be described thus: Osteogenic activity in mouse MC3T3-E1 cells assessed as mineralization at 7.5 uM after 6 days by Alizarin Red S staining-based method. The class given is functional, cell-based. The settings on record: time 6.0 day.
In data set [7] the test system is MC3T3-E1. The data set can be described thus: Activation of alkaline phosphatase secretion in mouse MC3T3-E1 cells at 15 uM using 4-nitrophenyl phosphate as substrate after 6 days. The class given is cell-based. The settings on record: filed as activator, time 6.0 day.
Data set [8] relates to MC3T3-E1. The data set can be described thus: Cytotoxicity against mouse MC3T3-E1 cells assessed as reduction in cell viability at 30 uM after 6 days by MTT assay. The settings on record: mc3t3-e1, 144 h, time 6 day. The class given is cell-based. A general note: Tetrazolium dyes change colour on reduction, which living cells bring about.
In data set [9] the test system is MC3T3-E1. The data set can be described thus: Cytotoxicity against mouse MC3T3-E1 cells assessed as reduction in cell viability at >= 30 uM after 6 days by MTT assay. In kind it is cell-based. As to conditions: mc3t3-e1, 144 h, time 6 day.

Turning to `CCCCCCCC(=O)CC(=O)N(C)[C@H](Cc1ccc(OC)cc1)C(=O)N(C)[C@H](C(N)=O)C(C)C`, the result in the data set on MC3T3-E1 [1] was inactive. For the same molecule, the result in the data set with MC3T3-E1 [2] (filed as activator) was Active.
With `CCCC(=O)[C@@H](C)C(=O)N(C)[C@H](Cc1ccc(OC)cc1)C(=O)N(C)[C@H](C(N)=O)C(C)C`, the result in the data set with MC3T3-E1 [3] (filed as activator) was Active. In addition, the result in the data set with MC3T3-E1 [4] was inactive.
Regarding `CCCCCCCC(=O)[C@@H](C)C(=O)N(C)[C@H](Cc1ccccc1)C(=O)N(C)[C@H](C(N)=O)C(C)C`, the outcome in the data set on MC3T3-E1 [1] was inactive. The result in the data set with MC3T3-E1 [2] (filed as activator) was Active.
Regarding `CCCCCCCC(=O)[C@@H](C)C(=O)N(C)[C@H](Cc1ccc(OC)cc1)C(=O)N(C)[C@@H](C)C(N)=O`, the outcome with MC3T3-E1 [5], in the data set with MC3T3-E1 [2] (filed as activator) and with MC3T3-E1 [6] was Active. The outcome with MC3T3-E1 [4] was inactive.
For the molecule `CCCCCCCCCC(=O)[C@@H](C)C(=O)N(C)[C@H](Cc1ccc(OC)cc1)C(=O)N(C)[C@H](C(N)=O)C(C)C`, in the data set with MC3T3-E1 [5], the outcome was inactive. Further, the result in the data set on MC3T3-E1 [7] was Active. Besides, the Activity result with MC3T3-E1 [8] was “Toxic”.
Consider `CCCCCCCC(=O)[C@@H](C)C(=O)N(C)[C@H](Cc1cc(Cl)c(OC)c(Cl)c1)C(=O)N(C)[C@H](C(N)=O)C(C)C`, for which the outcome with MC3T3-E1 [3] and with MC3T3-E1 [4] was inactive. Further, the Activity result with MC3T3-E1 [8] is “Toxic”.
Take `CCCCCCCC(=O)[C@@H](C)C(=O)N(C)[C@H](Cc1ccc(OC)cc1)C(=O)N(C)[C@H](C(N)=O)C(C)C`: the outcome in the data set with MC3T3-E1 [1] and with MC3T3-E1 [2] (filed as activator) was Active. Besides, in the data set on MC3T3-E1 [9], the Activity result was “Non-Toxic”.
For the molecule `CCCCCCCC(=O)C(C)(C)C(=O)N(C)[C@H](Cc1ccc(OC)cc1)C(=O)N(C)[C@H](C(N)=O)C(C)C`, the result in the data set with MC3T3-E1 [1] was inactive. Further, the outcome with MC3T3-E1 [2] (filed as activator) was Active.
Take `CCCCCCCC(=O)[C@H](C)C(=O)N(C)[C@H](Cc1ccc(OC)cc1)C(=O)N(C)[C@H](C(N)=O)C(C)C`: the result in the data set on MC3T3-E1 [1] and in the data set with MC3T3-E1 [2] (filed as activator) was Active. Also, the Activity result with MC3T3-E1 [9] is “Non-Toxic”.
For the molecule `CCCCCCCC[C@H](C)C(=O)N(C)[C@H](Cc1ccc(OC)cc1)C(=O)N(C)[C@H](C(N)=O)C(C)C`, the outcome with MC3T3-E1 [4] was Active. In addition, the result in the data set with MC3T3-E1 [1] and with MC3T3-E1 [2] was inactive.
For `CCCCCCCCCC(=O)N(C)[C@H](Cc1ccc(OC)cc1)C(=O)N(C)[C@H](C(N)=O)C(C)C`, the outcome in the data set on MC3T3-E1 [1] and in the data set with MC3T3-E1 [2] (filed as activator) was Active. Also, the Activity result in the data set on MC3T3-E1 [8] is given as “Toxic”.
For `CCCCCCC[C@@H](O)[C@H](C)C(=O)N(C)[C@H](Cc1ccc(OC)cc1)C(=O)N(C)[C@H](C(N)=O)C(C)C`, the result in the data set on MC3T3-E1 [3] (filed as activator) and in the data set with MC3T3-E1 [4] was Active.
Take `CCCCCCC[C@H](O)[C@@H](C)C(=O)N(C)[C@H](Cc1ccc(OC)cc1)C(=O)N(C)[C@H](C(N)=O)C(C)C`: the result with MC3T3-E1 [3] (filed as activator) was Active. In the data set with MC3T3-E1 [4], the result was inactive.
On to `CCCCCC(=O)[C@@H](C)C(=O)N(C)[C@H](Cc1ccc(OC)cc1)C(=O)N(C)[C@H](C(N)=O)C(C)C`, for which the result in the data set on MC3T3-E1 [3] (filed as activator) was Active. Besides, in the data set on MC3T3-E1 [4], the outcome was inactive.
Turning to `CCCCCCCC[C@@H](C)C(=O)N(C)[C@H](Cc1ccc(OC)cc1)C(=O)N(C)[C@H](C(N)=O)C(C)C`, in the data set with MC3T3-E1 [4], the result was Active. Besides, the outcome in the data set on MC3T3-E1 [1] and with MC3T3-E1 [2] was inactive.
